Source: patent US4045563A, “Substituted 2-[pyridylalkylenesulfinyl]-benzimidazoles with gastric acid secretion inhibiting effects” (AB Hassle, priority 1975, dated 1977)

system: gastric acid secretion; assay: Inhibition of pentagastrin-induced gastric acid secretion in anesthetized dogs (modified perfusion technique, intraduodenal test compound); type: in vivo; conditions: 1 mg per kg body weight, dog, pentagastrin-stimulated
Procedure: To test the gastric acid secretion activity, a modified perfusion technique was performed using dogs as test animals. An anesthetized dog was fitted with one tube going through the esophagus to the stomach for instillation of fluid, and a second tube extending through the duodenum by way of the ligated pylorus for fluid drainage. Every 15 minutes, 5 ml/kg body weight of a saline solution was introduced into the test animal, and drained samples collected and titrated to pH 7.0 with 0.04N NaOH using a radiometer automatic titrator to calculate the acid output.
Gastric acid secretion was induced by pentagastrin by administering 1-2 μg/kg per hour, giving a submaximal secretory response. Test compounds in a 0.5% Methocel (methyl cellulose) suspension were introduced into the duodenum close to the ligation at least two hours following onset of stimulation, when the secretion had reached a steady level for three consecutive 15 minute periods.
The following gastric acid inhibiting effect data were obtained for a number of compounds tested according to the method described.

SMILES | inhibited gastric acid secretion
[O-][S+](Cc1ccccn1)c1nc2ccccc2[nH]1 (stereo not shown) [Example 1, 2-[2-pyridylmethylsulfinyl]-benzimidazole] | 90%

same assay, conditions: Canis lupus familiaris, dose 1 mg/kg, dog, pentagastrin-stimulated

SMILES | inhibition in vivo at 1 mg/kg
CC(c1ccccn1)[S+]([O-])c1nc2ccccc2[nH]1 (stereo not shown) [Example 16] | 37%
Cc1ccc2[nH]c([S+]([O-])Cc3ccccn3)nc2c1 (stereo not shown) [Example 21] | 50%

same assay, conditions: Canis lupus familiaris, dose 2 mg/kg, dog, pentagastrin-stimulated

SMILES | inhibition in vivo at 2 mg/kg
CCC(c1ccccn1)[S+]([O-])c1nc2ccccc2[nH]1 (stereo not shown) [Example 28] | 65%

same assay, conditions: Canis lupus familiaris, dose 5 mg/kg, dog, pentagastrin-stimulated

SMILES | inhibition in vivo at 5 mg/kg
Cc1cc2nc([S+]([O-])C(C)c3ccccn3)[nH]c2cc1C (stereo not shown) [Example 55] | 30%
CCc1ccc(C[S+]([O-])c2nc3ccccc3[nH]2)nc1 (stereo not shown) [Example 45] | 90%
Cc1ccc(C[S+]([O-])c2nc3cc(C)ccc3[nH]2)nc1 (stereo not shown) [Example 26] | > 75%
CCc1ccc2[nH]c([S+]([O-])Cc3ccccn3)nc2c1 (stereo not shown) [Example 3] | 50%
CCC(c1ccccn1)[S+]([O-])c1nc2ccccc2[nH]1 (stereo not shown) [Example 28] | 80%
CCc1ccc(C[S+]([O-])c2nc3cc(C)ccc3[nH]2)nc1 (stereo not shown) [Example 44] | 95%
CC(c1ccccn1)[S+]([O-])c1nc2ccccc2[nH]1 (stereo not shown) [Example 16] | 96%
CCOC(=O)c1ccc2[nH]c([S+]([O-])Cc3ccccn3)nc2c1 (stereo not shown) [Example 9] | 8%
CCCc1ccc2[nH]c([S+]([O-])Cc3ccccn3)nc2c1 (stereo not shown) [Example 25] | 15%
Cc1cc(C)c2nc([S+]([O-])Cc3ccccn3)[nH]c2c1 (stereo not shown) [Example 2] | 94%
Cc1cccnc1C[S+]([O-])c1nc2ccccc2[nH]1 (stereo not shown) [Example 43] | > 75%
Cc1ccnc(C[S+]([O-])c2nc3cc(C)ccc3[nH]2)c1 (stereo not shown) [Example 42] | > 75%
CCc1ccc2[nH]c([S+]([O-])C(C)c3ccccn3)nc2c1 (stereo not shown) [Example 30] | 60%
[O-][S+](Cc1ccccn1)c1nc2c(Cl)cccc2[nH]1 (stereo not shown) [Example 53] | 30%
Cc1ccc2[nH]c([S+]([O-])Cc3ccccn3)nc2c1 (stereo not shown) [Example 21] | 95%
[O-][S+](Cc1ccccn1)c1nc2cc(Cl)ccc2[nH]1 (stereo not shown) [Example 22] | 35%

same assay, conditions: Canis lupus familiaris, dose 10 mg/kg, dog, pentagastrin-stimulated

SMILES | inhibition in vivo at 10 mg/kg
Cc1cc(Cl)cc2[nH]c([S+]([O-])Cc3ccccn3)nc12 (stereo not shown) [Example 4] | 41%
CC(C)c1ccc2[nH]c([S+]([O-])Cc3ccccn3)nc2c1 (stereo not shown) [Example 23] | 80%
